The text below walks through data of patent publication US20250339426A1, “GCN2 MODULATOR FOR TREATING CANCER” (HIBERCELL, INC., priority 2022, published 2025).

Test [1] has as its system DLD-1 (human colorectal cancer cells). Description: In vivo tumor growth inhibition, DLD-1 xenograft. Conditions: 5-fluorouracil 75 mg/kg once a week intravenous. Set-up: species or system BALB/c nude mice. Here is the method:
DLD-1 (human colorectal cancer cells): Female 6-8 weeks old BALB/c nude mice were inoculated subcutaneously on the right flank with DLD-1 tumor cells (5×10^6) in 0.1 ml of RPMI1640 medium without serum for tumor development. The treatments were started when the mean tumor size reached approximately 195 mm^3 at Day 7 post inoculation and continued until end of study by twice daily oral gavage dosing of HC-7366 at listed doses (vehicle, 0.3 mg/kg HC-7366, 1 mg/kg HC-7366, 3 mg/kg HC-7366, 10 mg/kg HC-7366, or 30 mg/kg HC-7366, FIG. 10). For the time course study, tumors were harvested at Days 4, 7 and 14. Tumors were then used for IHC and RNAseq experiments (see Example 21).
(§1) [formula] • 2.2.2 Tumor Measurements: The measurement of tumor size was conducted three times weekly with a caliper and recorded. The tumor volume (mm^3) was estimated using the formula: TV=a×b^2/2, where “a” and “b” is long and short diameters of a tumor, respectively. Tumor volume was calculated using the formula [tumor volume (mm^3)=π/6×length×width^2).
(§2) Regression was calculated using the formula=100×ΔT/T initial, if ΔT<0. Animals with 0 mm^3 tumor volume (no measurable tumor) for three consecutive measurements were considered as complete responders and animals with 50% tumor regressions were partial responders.
The effect of DC101 in combination with HC-7366 in DLD-1 tumor-bearing mice was evaluated using protocols analogous to those described in Example 6. Mice were treated with 3 or 30 mg/kg HC-7366, twice daily by oral gavage. DC101 was administered at 20 mg/kg twice weekly and with twice daily dosing via intraperitoneal injection.
The effect of 5-fluorouracil in combination with HC-7366 in DLD-1 tumor-bearing mice was evaluated using protocols analogous to those described in Example 6. Mice were treated with 3 or 30 mg/kg HC-7366, twice daily by oral gavage. 5-fluorouracil was administered at 75 mg/kg once a week, twice daily via intravenous injection.

Test [2] deals with 786-O (human renal cell carcinoma cancer cells). Description: In vivo tumor growth inhibition, 786-O xenograft. Set-up: species or system BALB/c nude mice. Conditions: PT-2977 single agent, 0.1 mg/kg twice a day oral. Here is the method: 786-O (human renal cell carcinoma cancer cells): Female 6-8 weeks old BALB/c nude mice were inoculated subcutaneously on the right flank with 786-O tumor cells (5×10^6) in 0.1 ml of RPMI1640 medium without serum for tumor development. […] For the DC101 combination study, DC101 (murine monoclonal anti-VEGFR2 antibody) was dosed at 15 mg/kg twice a week by intraperitoneal injection.
as §1, §2
Female 6-8 weeks old BALB/c nude mice were inoculated subcutaneously on the right flank with 786-O tumor cells (5×10^6) in 0.1 ml of RPMI1640 medium without serum for tumor development (see Example 6). […]

Test [3] relates to MFE280 (human endometrial cancer cells). Kind of test: In vivo tumor growth inhibition, MFE280 xenograft. Set-up: species or system Athymic Nude-Foxn1nu mice. Conditions: PT2977 1 mg/kg twice daily oral.
The subject of test [4] is NCI-H1975 (human non-small cell lung cancer cells). Description: In vivo tumor growth inhibition, NCI-H1975 xenograft. Also on record: species or system Athymic Nude-Foxn1nu mice. Here is the method: NCI-H1975 (human non-small cell lung cancer cells): Female 7-8 weeks old Athymic Nude-Foxn1nu mice were inoculated subcutaneously on the right flank with NCI-H1975 tumor cells (2.5×10^6) in 0.1 ml of RPMI1640 medium without serum for tumor development. Single agent HC-7366 was dosed at 3 mg/kg, osimertinib at 2.5 mg/kg and dacomitinib at 15 mg/kg. HC-7366 was combined with either osimertinib or dacomitinib. The vehicle for the groups was 0.5% methyl cellulose. The treatments were started when the mean tumor size reached approximately 205 mm^3 at Day 22 post inoculation and continued until end of study. HC-7366 was given twice daily by oral gavage whereas osimertinib or dacomitinib were administered once a day by oral gavage (FIGS. 131 and 133).
as §1, §2

In test [5] the test system is GCN2 pathway (p-GCN2, ATF4) in HT1080 cells. Description: Western blot analysis of HT1080 cell lysates. The format is cell-based, human. The following applies: 100 nM Halofuginone. Here is the method: The HT1080 cells were harvested and counted and diluted to the desired density. 2 mL of cell suspension was added into each well of 6-well cell culture plate. The plates were transferred into 37° C., 5% CO2 incubator overnight. The cells were treated as described above. The media was aspirated, and cells were washed with ice cold phosphate buffered saline (PBS). Ice cold 1× radioimmunoprecipitation assay (RIPA) lysis buffer supplemented with protease and phosphatase inhibitors was added to the cell pellets, on ice. After 30 min on ice the cell lysates were centrifuged at 4° C., 12,000 rpm for 15 minutes and the supernatant collected. Protein concentration was determined using BCA kit. The cell lysates were mixed with 5× sodium dodecyl sulfate (SDS) loading buffer and denatured at 95° C. for 5 minutes. […] After the electrophoresis was completed, the separated protein was transferred to a nitrocellulose membrane using transblot system for 90 min, 300 mA, then the membrane was blocked with (tris-buffered saline) TBS buffer (5% bovine serum albumin (BSA)) for 1 hr at room temperature. The membrane was exposed to the primary antibodies overnight in cold room in TBS buffer (1% BSA). The membrane was then washed with TBS-Tween for 3×10 min at R/T, incubated with secondary antibodies in TBS buffer (1% BSA) for 1 hr at RT. The membrane was washed with TBS-Tween for 3×10 min at R/T and the imaging was acquired with Li—COR imaging system.
For orientation: In western blotting, separated proteins are transferred to a membrane and probed.

The test system of test [6] is MV4-11 (human AML cancer cells). Kind of test: In vivo tumor growth inhibition, MV4-11 xenograft. Set-up: species or system BALB/c nude mice. The following applies: venetoclax monotherapy, 50 mg/kg once daily. On the procedure:
MV4-11 (human AML cancer cells): Female 6-8 weeks old BALB/c nude mice were inoculated subcutaneously on the right flank with MV4-11 tumor cells (1×10^7) in RPMI 1640 without serum for tumor development. The treatments were started when the mean tumor size reached approximately 150 mm^3 at Day 13 after cell inoculation and continued until end of study by twice daily oral gavage dosing of HC-7366 at listed doses (vehicle, 0.3 mg/kg HC-7366, 1 mg/kg HC-7366, 3 mg/kg HC-7366, 10 mg/kg HC-7366, or 30 mg/kg HC-7366, FIG. 20). For venetoclax combination study, venetoclax was dissolved in 0.5% carboxymethylcellulose (CMC) and co-administered at 50 mg/kg dose once daily (see Example 8).
as §1, §2
MV4-11 tumors were collected at the end of the venetoclax combination study described in Example 6. Tumor growth curves are provided of MV4-11 tumors treated with single agent HC-7366 and venetoclax or combination (FIG. 43).

The TGI is how far tumour growth fell short of that in controls.

`O=c1[nH]cc(F)c(=O)[nH]1` [5-fluorouracil, reference compound]: the TGI % in test [1] was approximately 68%. As for `CS(=O)(=O)c1ccc(Oc2cc(F)cc(C#N)c2)c2c1[C@H](O)[C@H](F)[C@@H]2F` [PT-2977, belzutifan, reference compound], in test [2], the TGI % is approximately 70%. Also, the tumor growth inhibition in test [3] was found to be 53%. With `COc1cc2ncnc(Nc3ccc(F)c(Cl)c3)c2cc1NC(=O)/C=C/CN1CCCCC1` [dacomitinib], the TGI % in test [4] (dacomitinib alone 15 mg/kg once a day, end of the study, without statistical significance) is reported as 36%. In the case of `O=C(CC1NCCCC1O)Cn1cnc2cc(Br)c(Cl)cc2c1=O` (centres unmarked) [halofuginone, reference compound], the “GCN2 and ATF4 in cells treated with halofuginone” value in test [5] was “activation of GCN2 and ATF4”. For the molecule `C=CC(=O)Nc1cc(Nc2nccc(-c3cn(C)c4ccccc34)n2)c(OC)cc1N(C)CCN(C)C` [osimertinib], the “partial response (animals/group)” value in test [4] (50% tumor regressions, doses as in study) is on record as 1/10. Also, the tumour growth inhibition (TGI) in test [4] (osimertinib 2.5 mg/kg once a day oral) was determined as 95%.

On to `CC1(C)CCC(CN2CCN(c3ccc(C(=O)NS(=O)(=O)c4ccc(NCC5CCOCC5)c([N+](=O)[O-])c4)c(Oc4cnc5[nH]ccc5c4)c3)CC2)=C(c2ccc(Cl)cc2)C1` [venetoclax, reference compound], for which the tumour growth inhibition (TGI) in test [6] came out at 62%.
